Test system: mice of the NZO strain (genetically obese, hyperglycaemic and hyperinsulinaemic)
Assay: APP given intraperitoneally to NZO mice: blood glucose, serum insulin, weight, oral Glucose Tolerance Test
Type: in vivo
Conditions: mean of APP-treated group, 1 μg i.p. 3 times a day; for Serum Insulin: Beef equivalent
Excerpt: It has now unexpectedly been found by the Applicants that these vertebrate pancreatic polypeptides (hereinafter collectively referred to as VPPs, which term should be understood to include such polypeptides of avian, amphibian, piscian, reptilian or mammalian origin) are as a class effective in lowering the concentration in the blood of both glucose and insulin when administered to a strain (NZO) of genetically obese, hyperglycaemic and hyperinsulinaemic mice. At the same time these treated mice lose weight as compared with untreated control animals and give normalized values in the oral Glucose Tolerance Test standard in the art.
APP (Endocrinology 83, 1323 (1968)) (1 μg) in water (0.1 ml) was administered by intraperitoneal injection 3 times a day for 25 days to each of 5 male mice (age 6 weeks, weight 23 g) of the NZO strain (genetically obese, hyperglycaemic and hyperinsulinaemic). 5 Matched control animals each received plain water (0.1 ml) by the same route and according to the same schedule. The blood glucose and serum insulin levels were measured at the start and during the course of the experiment and the mean results for the APP-treated group are shown in Table 1. No change in these levels from the values on day 0, which were the same as in the treated group, occurred in the control group over the course of the experiment.

avian pancreatic polypeptide [APP]
Serum Insulin (Day 0 (start)): 189 μU/ml
Blood glucose (Day 0 (start), 5 male NZO mice): 175 mg. %
Blood glucose (Day 5): 162 mg. %
Serum Insulin (Day 10): 99 μU/ml
Blood glucose (Day 15): 154 mg. %
Serum Insulin (Day 20): 47 μU/ml
Blood glucose (Day 25): 136 mg. %
